Source: patent US12145899B2, “Deuterated analogs of acetyl-leucine” (INTRABIO LTD., priority 2018, dated 2024)

Assays:
NPC CHO cells = test: NPC cellular phenotype assay: lysosomal volume by LysoTracker flow cytometry; assay type: cell-based, Chinese Hamster; settings: for LysoTracker fluorescence, fold change relative to untreated samples (normalised as 1.0): NPC CHO cells, treated 7 days, Mean±SD, n=3, concentration of the compared values not printed in the legend (b616 names 1 mM)
Method: FIG. 1 is a line graph showing the effect of acetyl-leucine (referred to as IB1000) and acetyl-leucine-2,3,3,4-d4 (referred to as DIB1000) in a NPC cellular phenotype assay. NPC CHO cells were treated with 1, 10, 100, 1000, and 5000 μM of acetyl-leucine or acetyl-leucine-2,3,3,4-d4 for 7 days. Data shown is Mean±SD of 1-3 biological repeats. LysoTracker fluorescence is expressed as fold change relative to responses obtained from untreated samples (normalised as 1.0). Acetyl-leucine; 0.79±0.05, Acetyl-leucine-2,3,3,4-d4; 0.45±0.03, unpaired t test, Two-tailed test, **p<0.01, n=3. The technique applied in the present study is described in te Vruchte et al., J. Clin. Invest. 3:1320-1328 (2014). Briefly, human fibroblasts from patients with Tay-Sachs Disease, AB Variant were purchased from the NINDS Human Genetic Repository at the Coriell Institute, 403 Haddon Avenue, Camden, N.J., 08103, USA. Fibroblasts or Chinese Hamster Ovary cells were grown in T75 culture flasks, treated for 7 days with compounds, trypsinized, centrifuged (180 g, 5 min), washed twice with 1×PBS, centrifuged again and were stained with 1 ml of 100 nM LysoTracker-green DND-26 (Invitrogen) in PBS (10 min, in dark). Following incubation, cells were centrifuged (800 g, 5 min), resuspended in 0.5 ml of FACS buffer (0.1% BSA, 0.02 M NaN3 in 1×PBS) and kept on ice for a maximum of 1 h prior to flow cytometric analysis (BD Biosciences FACSCanto II or Accuri C6 Plus). The cytometer was calibrated using Cytometer Setup and Tracking beads (BD), and compensation was performed using cells stained with Lysotracker or Propidium Iodide using BD FACSDiva software (BD) or BD Accuri C6 Plus software (BD).

[1] = system: Tay-Sachs, AB Variant patient-derived fibroblast cells; test: Tay-Sachs AB human fibroblast cell assay: lysosomal volume by LysoTracker flow cytometry; assay type: cell-based; settings: for LysoTracker signal relative to untreated (1.00): Tay-Sachs AB Variant fibroblasts, 1 mM, 7 days, n=3
Method: FIG. 2 is bar graph showing the effect of acetyl-leucine (referred to as IB1000) and acetyl-leucine-2,3,3,4-d4 (referred to as DIB1000) in a Tay-Sachs AB human fibroblast cell assay. Tay-Sachs, AB Variant patient-derived fibroblast cells were treated with 1 mM acetyl-leucine or acetyl-leucine-2,3,3,4-d4 to compare LysoTracker signals. Untreated; 1.00±0.02, n=3, Acetyl-leucine; 0.97±0.01, n=3, Acetyl-leucine-2,3,3,4-d4; 0.91±0.02, n=3. One-way ANOVA was conducted for statistical analysis. */**p<0.003/0.02. The technique applied in the present study is described in te Vruchte et al., J. Clin. Invest. 3:1320-1328 (2014). Briefly, human fibroblasts from patients with Tay-Sachs Disease, AB Variant were purchased from the NINDS Human Genetic Repository at the Coriell Institute, 403 Haddon Avenue, Camden, N.J., 08103, USA. Fibroblasts or Chinese Hamster Ovary cells were grown in T75 culture flasks, treated for 7 days with compounds, trypsinized, centrifuged (180 g, 5 min), washed twice with 1×PBS, centrifuged again and were stained with 1 ml of 100 nM LysoTracker-green DND-26 (Invitrogen) in PBS (10 min, in dark). Following incubation, cells were centrifuged (800 g, 5 min), resuspended in 0.5 ml of FACS buffer (0.1% BSA, 0.02 M NaN3 in 1×PBS) and kept on ice for a maximum of 1 h prior to flow cytometric analysis (BD Biosciences FACSCanto II or Accuri C6 Plus). The cytometer was calibrated using Cytometer Setup and Tracking beads (BD), and compensation was performed using cells stained with Lysotracker or Propidium Iodide using BD FACSDiva software (BD) or BD Accuri C6 Plus software (BD).

[2] = Pharmacokinetic study, plasma concentration after p.o. administration; assay type: in vivo, male BALB/c mice; settings: for AUC(0-t) / Cmax: male, BALB/c, mouse, plasma, po, 100 mg/kg, male BALB/c mice; for ratio for AUClast, deuterated analyte/non-deuterated analyte / ratio for Cmax, deuterated analyte/non-deuterated analyte: mice
Method: Acetyl-leucine, acetyl-L-leucine, acetyl-leucine-2,3,3,4-d4 (1-rac), and acetyl-L-leucine-2,3,3,4-d4 (1) were administered to male BALB/c mice via the oral (p.o) route. Plasma and tissue samples were collected at predetermined time points and analysed using HR/MS.

[3] = plasma analyte after p.o. acetyl-L-leucine 100 mg/kg
[4] = plasma analyte after p.o. acetyl-leucine 100 mg/kg
[5] = deuterated or non-deuterated acetyl-L-leucine administered p.o. 100 mg/kg
[6] = deuterated or non-deuterated acetyl-leucine (racemate) administered p.o. 100 mg/kg
[7] = plasma analyte after p.o. acetyl-L-leucine-2,3,3,4-d4 (1) 100 mg/kg in saline
[8] = plasma analyte after p.o. acetyl-L-leucine-2,3,3,4-d4 (1) 100 mg/kg
[9] = plasma analyte after p.o. acetyl-leucine-2,3,3,4-d4 (1-rac) 100 mg/kg in saline
[10] = plasma analyte after p.o. acetyl-leucine-2,3,3,4-d4 (1-rac) 100 mg/kg

SMILES	AUC(0-t) [2, 3]	AUC(0-t) [2, 4]	ratio for AUClast, deuterated analyte/non-deuterated analyte [2, 5]	ratio for Cmax, deuterated analyte/non-deuterated analyte [2, 5]	ratio for AUClast, deuterated analyte/non-deuterated analyte [2, 6]	ratio for Cmax, deuterated analyte/non-deuterated analyte [2, 6]	Cmax [2, 7]	AUC(0-t) [2, 8]	Cmax [2, 9]	AUC(0-t) [2, 10]	LysoTracker fluorescence, fold change relative to untreated samples (normalised as 1.0) (NPC CHO cells)	LysoTracker signal relative to untreated (1.00) [1]	also measured
CC(=O)NC(CC(C)C)C(=O)O (racemic) [acetyl-leucine, N-acetyl-DL-leucine]											0.79±0.05 fold change	0.97±0.01	
[2H]C(C)(C)C([2H])([2H])[C@]([2H])(NC(C)=O)C(=O)O (racemic) [acetyl-leucine-2,3,3,4-d4, Acetyl-leucine-2,3,3,4-d4]											0.45±0.03 fold change	0.91±0.02	LysoTracker fluorescence level compared to acetyl-leucine (NPC CHO cells; NPC CHO cell line, 1 mM vs 1 mM acetyl-leucine): significant reduction; LysoTracker fluorescence level compared to acetyl-leucine ([1]; Tay-Sachs AB Variant human fibroblast cell line, 1 mM vs 1 mM acetyl-leucine): significant reduction

Continued, in another order:

AUC(0-t) [2, 3]	AUC(0-t) [2, 4]	ratio for AUClast, deuterated analyte/non-deuterated analyte [2, 5]	ratio for Cmax, deuterated analyte/non-deuterated analyte [2, 5]	ratio for AUClast, deuterated analyte/non-deuterated analyte [2, 6]	ratio for Cmax, deuterated analyte/non-deuterated analyte [2, 6]	Cmax [2, 7]	AUC(0-t) [2, 8]	Cmax [2, 9]	AUC(0-t) [2, 10]	SMILES	LysoTracker fluorescence, fold change relative to untreated samples (normalised as 1.0) (NPC CHO cells)	LysoTracker signal relative to untreated (1.00) [1]	also measured
573 ng·h/mL	57800 ng·h/mL									CC(=O)N[C@H](CC(C)C)C(=O)O [acetyl-D-leucine, N-acetyl-D-leucine, reference compound]			
		5.50	7.40	1.72	0.59	3230 ng/mL	3150 ng·h/mL	50600 ng/mL	99600 ng·h/mL	[2H]C(C)(C)C([2H])([2H])[C@@]([2H])(NC(C)=O)C(=O)O [acetyl-D-leucine-2,3,3,4-d4]			
11400 ng·h/mL	2600 ng·h/mL									CC(=O)N[C@@H](CC(C)C)C(=O)O [acetyl-L-leucine, N-acetyl-L-leucine, reference compound]			
		1.61	1.75	1.32	1.14	29300 ng/mL	18200 ng·h/mL	3880 ng/mL	3430 ng·h/mL	[2H]C(C)(C)C([2H])([2H])[C@]([2H])(NC(C)=O)C(=O)O [acetyl-L-leucine-2,3,3,4-d4, Acetyl-L-leucine-2,3,3,4-d4]			
